Source: the NIST ThermoML archive (doi:10.1007/s10765-008-0482-1)
“And” between values parts separate entries of the source, which are not always exact repeats. Equal values may be shown once.

Test: xn = mol fraction of the nth substance listed
Settings: Fluid (supercritical or subcritical phases), Parallel plate method

CC [ethane] + O=C=O
Settings	thermal conductivity
291.06 K, Amount density=2940 mol/m3, x2 = 0.5	0.0276 W/m/K
291.06 K, Amount density=6960 mol/m3, x2 = 0.5	0.099 W/m/K
291.07 K, Amount density=5650 mol/m3, x2 = 0.5	0.0554 W/m/K
291.07 K, Amount density=7530 mol/m3, x2 = 0.5	0.114 W/m/K
291.08 K, Amount density=435 mol/m3, x2 = 0.5	0.0191 W/m/K
291.11 K, Amount density=6960 mol/m3, x2 = 0.5	0.104 W/m/K
291.17 K, Amount density=6960 mol/m3, x2 = 0.5	0.11 W/m/K
291.18 K, Amount density=6960 mol/m3, x2 = 0.5	0.108 W/m/K
291.2 K, Amount density=7530 mol/m3, x2 = 0.5	0.144 W/m/K
291.24 K, Amount density=7730 mol/m3, x2 = 0.5	0.151 W/m/K
291.26 K, Amount density=7530 mol/m3, x2 = 0.5	0.159 W/m/K
291.29 K, Amount density=7530 mol/m3, x2 = 0.5	0.158 W/m/K
291.32 K, Amount density=7530 mol/m3, x2 = 0.5	0.21 W/m/K
291.33 K, Amount density=7530 mol/m3, x2 = 0.5	0.206 W/m/K
291.34 K, Amount density=435 mol/m3, x2 = 0.5	0.0192 W/m/K
291.34 K, Amount density=2940 mol/m3, x2 = 0.5	0.0274 W/m/K
291.34 K, Amount density=6960 mol/m3, x2 = 0.5	0.11 W/m/K
291.34 K, Amount density=7730 mol/m3, x2 = 0.5	0.203 W/m/K
291.35 K, Amount density=5650 mol/m3, x2 = 0.5	0.0542 W/m/K
291.35 K, Amount density=6960 mol/m3, x2 = 0.5	0.111 W/m/K
291.35 K, Amount density=7530 mol/m3, x2 = 0.5	0.172 W/m/K
291.5 K, Amount density=435 mol/m3, x2 = 0.5	0.0192 W/m/K
291.55 K, Amount density=2940 mol/m3, x2 = 0.5	0.0274 W/m/K
291.55 K, Amount density=7730 mol/m3, x2 = 0.5	0.128 W/m/K
291.57 K, Amount density=5650 mol/m3, x2 = 0.5	0.0553 W/m/K
291.57 K, Amount density=7530 mol/m3, x2 = 0.5	0.139 W/m/K
292.05 K, Amount density=6960 mol/m3, x2 = 0.5	0.099 W/m/K and 0.0913 W/m/K
292.05 K, Amount density=7530 mol/m3, x2 = 0.5	0.106 W/m/K
292.05 K, Amount density=7730 mol/m3, x2 = 0.5	0.102 W/m/K
292.08 K, Amount density=435 mol/m3, x2 = 0.5	0.0192 W/m/K
292.09 K, Amount density=5650 mol/m3, x2 = 0.5	0.0546 W/m/K
292.11 K, Amount density=2940 mol/m3, x2 = 0.5	0.0276 W/m/K
292.64 K, Amount density=6630 mol/m3, x2 = 0.74	0.0593 W/m/K
293.08 K, Amount density=6710 mol/m3, x2 = 0.26	0.0687 W/m/K
293.08 K, Amount density=7530 mol/m3, x2 = 0.5	0.0833 W/m/K
293.09 K, Amount density=6960 mol/m3, x2 = 0.5	0.0861 W/m/K
293.11 K, Amount density=7730 mol/m3, x2 = 0.5	0.0798 W/m/K
293.13 K, Amount density=2940 mol/m3, x2 = 0.5	0.0277 W/m/K
293.14 K, Amount density=5650 mol/m3, x2 = 0.5	0.052 W/m/K
293.15 K, Amount density=435 mol/m3, x2 = 0.5	0.0193 W/m/K
293.15 K, Amount density=877 mol/m3, x2 = 0.26	0.0213 W/m/K
293.15 K, Amount density=6630 mol/m3, x2 = 0.74	0.0578 W/m/K
293.15 K, Amount density=9120 mol/m3, x2 = 0.74	0.213 W/m/K
293.17 K, Amount density=9120 mol/m3, x2 = 0.74	0.16 W/m/K
293.24 K, Amount density=9120 mol/m3, x2 = 0.74	0.156 W/m/K
293.34 K, Amount density=9120 mol/m3, x2 = 0.74	0.135 W/m/K
293.53 K, Amount density=9120 mol/m3, x2 = 0.74	0.116 W/m/K
293.64 K, Amount density=3090 mol/m3, x2 = 0.26	0.0314 W/m/K
293.95 K, Amount density=9120 mol/m3, x2 = 0.74	0.101 W/m/K
294.32 K, Amount density=9120 mol/m3, x2 = 0.74	0.0842 W/m/K
294.72 K, Amount density=9120 mol/m3, x2 = 0.74	0.0824 W/m/K
294.96 K, Amount density=6710 mol/m3, x2 = 0.26	0.075 W/m/K
295.61 K, Amount density=7450 mol/m3, x2 = 0.25	0.0795 W/m/K
295.7 K, Amount density=6960 mol/m3, x2 = 0.5	0.0639 W/m/K
295.73 K, Amount density=6710 mol/m3, x2 = 0.26	0.0845 W/m/K
295.76 K, Amount density=7450 mol/m3, x2 = 0.25	0.0843 W/m/K
295.87 K, Amount density=7450 mol/m3, x2 = 0.25	0.0833 W/m/K
295.98 K, Amount density=7450 mol/m3, x2 = 0.25	0.0881 W/m/K
296.02 K, Amount density=7530 mol/m3, x2 = 0.5	0.0642 W/m/K
296.02 K, Amount density=7730 mol/m3, x2 = 0.5	0.0595 W/m/K
296.03 K, Amount density=9120 mol/m3, x2 = 0.74	0.0663 W/m/K
296.04 K, Amount density=5650 mol/m3, x2 = 0.5	0.047 W/m/K
296.05 K, Amount density=6630 mol/m3, x2 = 0.74	0.0507 W/m/K
296.05 K, Amount density=6710 mol/m3, x2 = 0.26	0.099 W/m/K and 0.101 W/m/K
296.06 K, Amount density=435 mol/m3, x2 = 0.5	0.0196 W/m/K
296.06 K, Amount density=6630 mol/m3, x2 = 0.74	0.0506 W/m/K
296.06 K, Amount density=8450 mol/m3, x2 = 0.25	0.112 W/m/K
296.07 K, Amount density=2940 mol/m3, x2 = 0.5	0.0278 W/m/K
296.07 K, Amount density=6960 mol/m3, x2 = 0.5	0.062 W/m/K
296.07 K, Amount density=7450 mol/m3, x2 = 0.25	0.0888 W/m/K
296.1 K, Amount density=6710 mol/m3, x2 = 0.26	0.0958 W/m/K
296.11 K, Amount density=8450 mol/m3, x2 = 0.25	0.11 W/m/K
296.12 K, Amount density=446 mol/m3, x2 = 0.25	0.0209 W/m/K
296.14 K, Amount density=2940 mol/m3, x2 = 0.25	0.0304 W/m/K
296.14 K, Amount density=10780 mol/m3, x2 = 0.25	0.0692 W/m/K
296.18 K, Amount density=5680 mol/m3, x2 = 0.25	0.075 W/m/K
296.18 K, Amount density=7490 mol/m3, x2 = 0.25	0.0914 W/m/K
296.19 K, Amount density=5680 mol/m3, x2 = 0.25	0.0751 W/m/K
296.2 K, Amount density=6830 mol/m3, x2 = 0.25	0.0909 W/m/K
296.21 K, Amount density=8450 mol/m3, x2 = 0.25	0.107 W/m/K
296.22 K, Amount density=6830 mol/m3, x2 = 0.25	0.0855 W/m/K
296.22 K, Amount density=7450 mol/m3, x2 = 0.25	0.0888 W/m/K and 0.099 W/m/K
296.24 K, Amount density=2940 mol/m3, x2 = 0.25	0.0312 W/m/K
296.24 K, Amount density=6710 mol/m3, x2 = 0.26	0.118 W/m/K
296.29 K, Amount density=5680 mol/m3, x2 = 0.25	0.0757 W/m/K
296.31 K, Amount density=7490 mol/m3, x2 = 0.25	0.102 W/m/K
296.34 K, Amount density=6710 mol/m3, x2 = 0.26	0.159 W/m/K
296.34 K, Amount density=7490 mol/m3, x2 = 0.25	0.107 W/m/K
296.36 K, Amount density=6710 mol/m3, x2 = 0.26	0.166 W/m/K
296.38 K, Amount density=6710 mol/m3, x2 = 0.26	0.147 W/m/K and 0.193 W/m/K and 0.172 W/m/K
296.39 K, Amount density=6710 mol/m3, x2 = 0.26	0.166 W/m/K
296.4 K, Amount density=6710 mol/m3, x2 = 0.26	0.18 W/m/K
296.4 K, Amount density=7450 mol/m3, x2 = 0.25	0.124 W/m/K
296.4 K, Amount density=7490 mol/m3, x2 = 0.25	0.114 W/m/K
296.41 K, Amount density=7450 mol/m3, x2 = 0.25	0.117 W/m/K
296.44 K, Amount density=6710 mol/m3, x2 = 0.26	0.167 W/m/K
296.44 K, Amount density=7490 mol/m3, x2 = 0.25	0.124 W/m/K and 0.13 W/m/K
296.45 K, Amount density=5680 mol/m3, x2 = 0.25	0.0719 W/m/K
296.46 K, Amount density=6830 mol/m3, x2 = 0.25	0.102 W/m/K
296.52 K, Amount density=2940 mol/m3, x2 = 0.25	0.0308 W/m/K
296.52 K, Amount density=6710 mol/m3, x2 = 0.26	0.135 W/m/K
296.52 K, Amount density=7450 mol/m3, x2 = 0.25	0.131 W/m/K
296.54 K, Amount density=7490 mol/m3, x2 = 0.25	0.166 W/m/K
296.56 K, Amount density=446 mol/m3, x2 = 0.25	0.0209 W/m/K
296.58 K, Amount density=7450 mol/m3, x2 = 0.25	0.157 W/m/K
296.62 K, Amount density=7450 mol/m3, x2 = 0.25	0.184 W/m/K
